Data taken from the Deep4Chem optical property database.
Blank lines part the entries; values can stand above or below the molecule they belong to.

Test: solvent given as SMILES

Structure (SMILES): CC1(C)c2ccccc2N(c2ccc(-c3cnc(C#N)nc3)cc2)c2ccccc21
absorption maximum (in Cc1ccccc1): 384 nm

Structure (SMILES): Cc1cc(C)c(B(c2ccc(-c3cc4ccc5cccc6ccc(c3)c4c56)cc2)c2c(C)cc(C)cc2C)c(C)c1
absorption maximum (in Cc1ccccc1): 378 nm

Structure (SMILES): N#Cc1ccc(-n2c(-c3ccc(-c4ccc(-c5nc6c7ccccc7c7ccccc7c6n5-c5ccc(C#N)c6ccccc56)cc4)cc3)nc3c4ccccc4c4ccccc4c32)c2ccccc12
absorption maximum (in ClCCl): 340 nm

Structure (SMILES): Cc1cc(C)c([B-]2(c3c(C)cc(C)cc3C)[O+]=P(c3ccccc3)(c3ccccc3)c3cc(-c4ccc(C(F)(F)F)cc4)sc3-c3sc(-c4ccc(C(F)(F)F)cc4)cc32)c(C)c1
absorption maximum (in C1CCOC1): 405 nm

Structure (SMILES): CCOC(=O)c1cc(C(=O)OCC)c2cc(OC)ccc2n1
absorption maximum (in CCO): 355 nm

Structure (SMILES): CN(C)c1ccc(C2=Nc3scc(-c4ccc(C#N)cc4)[n+]3[B-](F)(F)O2)cc1
absorption maximum (in C1CCOC1): 411 nm
absorption maximum (in CC#N): 411 nm
absorption maximum (in Cc1ccccc1): 414 nm
absorption maximum (in ClCCl): 415 nm

Structure (SMILES): CC(C)=CCN1C(=O)c2cccc3c2c(cc2nc(C)oc23)C1=O
absorption maximum (in CCO): 362 nm

Structure (SMILES): CCOC(=O)c1c2c3c(ccc(Cl)c3c3cc4c(cc13)[Si](C)(C)O[Si]4(C)C)N(C)C2=O
absorption maximum (in CC#N): 378 nm

Structure (SMILES): CCOC(=O)c1cc(C(=O)OCC)c2c(C)ccc(OC(=O)OC(C)(C)C)c2n1
absorption maximum (in CCO): 312 nm

Structure (SMILES): CC[N+]1(CC)CN2C(=N1)C(C(=O)O)=Cc1ccc(Cl)cc12
absorption maximum (in O): 367 nm

Structure (SMILES): CCCCCCn1c(=O)c2c3oc4ccccc4sc3c3c(=O)n(CCCCCC)c(=O)c3c2c1=O
absorption maximum (in ClCCl): 437 nm

Structure (SMILES): CI
absorption maximum (in CCCCCC): 259 nm

Structure (SMILES): Cc1ccc([B-]2(c3ccc(C)cc3)n3nc(C(F)(F)F)cc3-c3c4ccccc4cc[n+]32)cc1
absorption maximum (in C1CCCCC1): 377 nm
absorption maximum (in Cc1ccccc1): 377 nm
absorption maximum (in ClCCl): 373 nm

Structure (SMILES): CCCCN1C(=O)c2cc(Oc3ccc(C(C)(C)C)cc3)c3c4c(Oc5ccc(C(C)(C)C)cc5)cc5c6c(cc(Oc7ccc(C(C)(C)C)cc7)c(c7c(Oc8ccc(C(C)(C)C)cc8)cc(c2c37)C1=O)c64)C(=O)N(CCCC)C5=O
absorption maximum (in ClC(Cl)Cl): 582 nm

Structure (SMILES): CC1=C2C=CC=[N+]2[B-](F)(F)n2cccc21
absorption maximum (in CCCCCC): 500 nm
absorption maximum (in CO): 494 nm
absorption maximum (in ClCCl): 499 nm

Structure (SMILES): c1ccc(-c2cc3c(-c4ccccc4)c4cccc5c(-c6ccccc6)cc6c(-c7ccccc7)c7cccc2c7c3c6c54)cc1
absorption maximum (in ClCCl): 454 nm

Structure (SMILES): N#Cc1nc2cnc(N)nc2n1Cc1ccccc1
absorption maximum (in C1COCCO1): 331 nm
absorption maximum (in CC#N): 330 nm
absorption maximum (in CO): 333 nm
absorption maximum (in ClCCl): 326 nm
absorption maximum (in O): 331 nm

Structure (SMILES): CCOC(=O)c1cc(C(=O)OCC)c2ccc(O)cc2n1
absorption maximum (in CCO): 373 nm

Structure (SMILES): CC[N+]1(CC)CN2C(=N1)C(C(=O)O)=Cc1cc(Oc3ccccc3)ccc12
absorption maximum (in O): 387 nm

Structure (SMILES): COc1cc(C(=O)O)cc(OC)c1O
absorption maximum (in O): 260 nm

Structure (SMILES): CC(C)[Si](C#Cc1c2ccccc2c(C#Cc2c3ccccc3c(C#Cc3c4ccccc4c(C#Cc4c5ccccc5c(C#C[Si](C(C)C)(C(C)C)C(C)C)c5ccccc45)c4ccccc34)c3ccccc23)c2ccccc12)(C(C)C)C(C)C
absorption maximum (in Cc1ccccc1): 582 nm

Structure (SMILES): Cc1ccc2cc3c(=O)n(C)c(=O)n(C)c3nc2c1
absorption maximum (in CC#N): 353 nm
absorption maximum (in CC(C)O): 353 nm
absorption maximum (in CCO): 353 nm
absorption maximum (in CO): 352 nm
absorption maximum (in ClC(Cl)Cl): 355 nm
absorption maximum (in ClCCl): 355 nm

Structure (SMILES): CN(C)c1ccc(C=C/C=C/C=C/c2ccc(C#N)cc2)cc1
absorption maximum (in C1CCOC1): 420 nm
absorption maximum (in CC#N): 418 nm
absorption maximum (in CCCC#N): 422 nm
absorption maximum (in CCCCCC): 412 nm
absorption maximum (in CCCCOCCCC): 416 nm
absorption maximum (in CCO): 418 nm
absorption maximum (in CCOCC): 416 nm

Structure (SMILES): Cc1cc(-c2ccc(-n3c4ccccc4c4ccccc43)cc2)nc(-c2ccc(-c3ccccc3)cc2)n1
absorption maximum (in C1CCOC1): 341 nm
absorption maximum (in CN(C)C=O): 341 nm
absorption maximum (in Cc1ccccc1): 341 nm
absorption maximum (in ClC(Cl)Cl): 341 nm

Structure (SMILES): CC(C)[Si]1(C(C)C)c2ccccc2-c2ccc(N(C)C)cc21
absorption maximum (in C1CCCCC1): 323 nm
absorption maximum (in CC#N): 321 nm
absorption maximum (in CCO): 319 nm
absorption maximum (in CCOCC): 318 nm
absorption maximum (in CS(C)=O): 324 nm
absorption maximum (in ClCCl): 323 nm
absorption maximum (in c1ccccc1): 323 nm

Structure (SMILES): CN(C)c1ccc2cc(C3=[O+][B-](F)(F)OC(c4ccccc4)=C3)ccc2c1
absorption maximum (in C1CCOC1): 492 nm
absorption maximum (in CC#N): 503 nm
absorption maximum (in CC(C)=O): 498 nm
absorption maximum (in CS(C)=O): 520 nm
absorption maximum (in Cc1ccccc1): 489 nm
absorption maximum (in ClC(Cl)Cl): 500 nm
absorption maximum (in ClCCl): 504 nm

Structure (SMILES): N#Cc1c(-n2nnc3c2CCC2C(CC3)[C@@H]2CO)n([C@H]2C[C@H](O)[C@@H](CO)O2)c2ncnc(N)c12 (stereo not given in full)
absorption maximum (in CO): 287 nm

Structure (SMILES): F[B-]1(F)n2cccc2C=C2C=CC=[N+]21
absorption maximum (in C1CCCCC1): 503.5 nm
absorption maximum (in CC(C)=O): 497.5 nm
absorption maximum (in CCCCCC): 502 nm
absorption maximum (in CCO): 498 nm
absorption maximum (in CCOC(C)=O): 498 nm
absorption maximum (in CO): 497 nm
absorption maximum (in ClCCl): 503 nm
absorption maximum (in OCC(F)(F)F): 497 nm

Structure (SMILES): COc1ccc(-c2cc(-c3ccc(C)cc3)nc3c(C#N)c(N4CCCC4)nc(N)c23)cc1
absorption maximum (in CC#N): 418 nm
absorption maximum (in CC(C)=O): 420 nm
absorption maximum (in CC(C)O): 414 nm
absorption maximum (in CO): 414 nm
absorption maximum (in ClC(Cl)Cl): 418 nm
absorption maximum (in ClCCl): 422 nm
absorption maximum (in c1ccccc1): 424 nm

Structure (SMILES): CCN(CC)c1ccc2c(c1)oc(=O)c1c(=O)oc3cc(C#Cc4ccc(C#N)cc4)ccc3c12
absorption maximum (in CS(C)=O): 481 nm
absorption maximum (in ClCCl): 476 nm

Structure (SMILES): C[Si](C)(C)c1cccc2c(C#N)cccc12
absorption maximum (in C1CCCCC1): 311 nm

Structure (SMILES): F[B-]1(F)n2c(cc(-c3ccccc3)c2-c2ccccc2)C(c2ccccc2)=C2C=C(c3ccccc3)C(c3ccccc3)=[N+]21
absorption maximum (in C1CCOC1): 586 nm
absorption maximum (in CC#N): 576 nm
absorption maximum (in Cc1ccccc1): 592 nm
absorption maximum (in ClCCl): 584 nm

Structure (SMILES): CCN(CC)c1cc2oc3cc(N(CC)CC)c(F)cc3c(=O)c2cc1F
absorption maximum (in CCO): 389 nm

Structure (SMILES): c1ccc(N2c3ccc4ccccc4c3-c3c4ccccc4cc[n+]3[B-]2(c2ccccc2)c2ccccc2)cc1
absorption maximum (in Cc1ccccc1): 511 nm

Structure (SMILES): [C-]#[N+]c1ccc(-c2ccc(N(C)C)cc2)cc1
absorption maximum (in C1CCCCC1): 325 nm
absorption maximum (in C1CCOC1): 334 nm
absorption maximum (in C1COCCO1): 330 nm
absorption maximum (in CC#N): 333 nm
absorption maximum (in CC(C)=O): 327 nm
absorption maximum (in CCCCCC): 323 nm
absorption maximum (in CCOC(C)=O): 330 nm
absorption maximum (in CN(C)C=O): 339 nm
absorption maximum (in CO): 333 nm
absorption maximum (in CS(C)=O): 340 nm
absorption maximum (in Cc1ccccc1): 329 nm
absorption maximum (in ClC(Cl)Cl): 331 nm
absorption maximum (in ClCCl): 336 nm
absorption maximum (in O): 315 nm
absorption maximum (in c1ccncc1): 340 nm

Structure (SMILES): CCC[Si](CCC)(CCC)c1cc2ccc3cccc4ccc(c1C(=O)NC(C)(C)C)c2c34
absorption maximum (in ClC(Cl)Cl): 382 nm

Structure (SMILES): O=Cc1ccc2nc(C#Cc3ccc(N(c4ccccc4)c4ccccc4)cc3)sc2c1
absorption maximum (in Cc1ccccc1): 411 nm

The remaining lines, values ahead:

absorption maximum (in ClC(Cl)Cl): 301 nm
Structure (SMILES): CCCCn1c2ccc(-c3ccc(C(F)(F)F)cc3)cc2c2ccc3c4cc(-c5ccc(C(F)(F)F)cc5)ccc4n(CCCC)c3c21

absorption maximum (in ClCCl): 314 nm
Structure (SMILES): Cc1cc2c3ccccc3oc2c2[nH]c3ccccc3c12

absorption maximum (in C1CCOC1): 409 nm
Structure (SMILES): COc1cc2c(cc1-c1ccc(C#N)cc1)Cc1c3c(c4c(c1-2)-c1cc(OC)c(-c2ccc(C#N)cc2)cc1C4)C(=O)N(CCC(C)C)C3=O

absorption maximum (in CC#N): 306 nm
Structure (SMILES): COc1cc(/C=C/c2ccccc2)cc(OC)c1

absorption maximum (in CO): 629 nm
absorption maximum (in CS(C)=O): 641 nm
absorption maximum (in O): 633 nm
Structure (SMILES): CCCN1/C(=C/C=C(/C=C/C2=[N+](CCC)c3ccccc3C2(C)C)c2ccc3ccccc3n2)C(C)(C)c2ccccc21

absorption maximum (in CCO): 437 nm
Structure (SMILES): CC(NC(=O)OC(C)(C)C)C(=O)OCc1ccc2c3cccc4cccc(c5cccc1c52)c43 (stereo not given)

absorption maximum (in CCO): 572 nm
absorption maximum (in ClCCl): 581 nm
absorption maximum (in O): 581 nm
Structure (SMILES): CC[N+](CC)=c1ccc2c(-c3ccccc3C(=O)O)c3oc4cc(N)ccc4c3oc-2c1

absorption maximum (in ClCCl): 303 nm
Structure (SMILES): Cc1cc2ccccc2c2c1c1ccccc1n2-c1ccccc1

absorption maximum (in C1COCCO1): 457 nm
Structure (SMILES): COc1ccc(C2=C/C(=C\c3ccc(C#N)cc3)C(=O)N2)cc1OC

absorption maximum (in ClCCl): 361 nm
Structure (SMILES): CCOC(=O)c1c(-c2cc3c(ccc4ccccc43)oc2=O)nn(-c2cccc(C)c2)c1C(=O)OCC

absorption maximum (in ClC(Cl)Cl): 432 nm
Structure (SMILES): Cc1ccc(C2=Cc3ccc4ccccc4[n+]3[B-](F)(F)O2)cc1

absorption maximum (in ClCCl): 437 nm
Structure (SMILES): CCCCCCCCCCCCN1C(=O)c2c(c3ccc4cc(-c5ccc(-c6ccccc6)cc5)c(OC)cc4c3c3c2ccc2cc(-c4ccc(-c5ccccc5)cc4)c(OC)cc23)C1=O

absorption maximum (in CO): 299 nm
Structure (SMILES): COc1ccc(-c2nc(-c3ccccc3OC)[nH]c2-c2ccc(OC)cc2)cc1

absorption maximum (in CS(C)=O): 634 nm
Structure (SMILES): COc1ccc(-c2c3nc(cc4ccc([nH]4)c(-c4ccc(OC)c(OCCCC(=O)O)c4)c4nc(cc5ccc2[nH]5)C=C4)C=C3)cc1OCCCC(=O)O

absorption maximum (in CC#N): 322 nm
Structure (SMILES): C[C@@]12SC(Cl)=CC1=c1nc(-c3ccccc3)[nH]c1=C1C=C(Cl)S[C@]12C

absorption maximum (in ClCCl): 491 nm
Structure (SMILES): Cc1ccc2nc3cc4c5c(cccc5c3nc2c1)C(c1ccccc1)=C(c1ccccc1)O4

absorption maximum (in CC#N): 655 nm
Structure (SMILES): F[B-]1(F)n2c(-c3ccccc3)cc(-c3ccccn3)c2N=C2C(c3ccccn3)=CC(c3ccccc3)=[N+]21

absorption maximum (in ClCCl): 481 nm
Structure (SMILES): COc1ccc(-c2c3ccccc3c(C#Cc3ccccc3)c3cc4cc(C)sc4cc23)cc1

absorption maximum (in ClCCl): 273 nm
Structure (SMILES): COC(=O)c1c(-c2cc3ccccc3oc2=O)nn(-c2cccc(Cl)c2)c1C(=O)OC

absorption maximum (in ClCCl): 468 nm
Structure (SMILES): CCCc1c(C(=O)c2ccc3c4c(cccc24)-c2cccc4c2C3CC=C4)c2ccc3cccc4c5cccc6ccc1c(c65)c2c34 (stereo not given)

absorption maximum (in ClCCl): 354 nm
Structure (SMILES): CC(C)(C)c1ccc2c(c1)c1cc(C(C)(C)C)ccc1n2-c1ccc(C#Cc2ccc(C=O)cc2)cc1
